We go through seven molecules from patent publication US20080064714A1, “Novel Pyrrolodihydroisoquinolines” (NYCOMED GMBH, priority 2005, published 2008).

SMILES strings stand for the structures.

Series [1] has as its system NCl-H460 non-small cell lung cancer cells. The series can be described thus: Alamar Blue cell viability assay (anti-proliferative/cytotoxic activity). The format is cell-based. Conditions: Homo sapiens, NCI-H460 cells, 72 hours incubation, read-out: −log IC50 NCI-H460 (mol/l), anti-proliferative/cytotoxic activity (converted). The procedure: The anti-proliferative/cytotoxic activity of the compounds described herein, can be tested on NCl-H460 non-small cell lung cancer cells using the Alamar Blue cell viability assay (described in O'Brien et al. Eur J Biochem 267, 5421-5426, 2000). The compounds are dissolved as 20 mM solutions in dimethylsulfoxide (DMSO) and subsequently diluted in semi-logarithmic steps. DMSO dilutions are further diluted 1:10 into Dulbecco's modified Eagle's medium (DMEM) containing 10% fetal calf serum to a final concentration ten times as much as the final concentration in the test. NCl-H460 cells are seeded into 96 well flat bottom plates at a density of 4000 cells per well in a volume of 180 μl per well. 24 hours after seeding the 20 μl each of the compound dilutions in DMEM medium are added into each well of the 96 Well plate. Each compound dilution is tested as quadruplicates. Wells containing untreated control cells are filled with […] DMEM medium containing 1% DMSO. The cells are then incubated with the substances for 72 hours at 37° C. in a humified atmosphere containing 5% carbon dioxide. To determine the viability of the cells, 20 μl of an Alamar Blue solution (Biosource) are added and the fluorescence is measured at an extinction of 544 nm and an emission of 590 nm. For the calculation of cell viability the emission value from untreated cells is set to 100% viability and the emission rates of treated cells are set in relation to the values of untreated cells. Viabilities are expressed as % values.
The corresponding IC50 values of the compounds for anti-proliferative/cytotoxic activity are determined from the concentration-effect curves.
Representative IC50 values for anti-proliferation/cytotoxicity determined in the aforementioned assay follow from the following table A, in which the numbers of the compound correspond to the numbers of the examples.
(In general: Resazurin is reduced to fluorescent resorufin, in cell work by metabolically active cells.)

Series [2] shares this test system. The experiment in a line: modified Alamar Blue cell viability assay for compound combinations. In kind it is cell-based. Conditions: in combination with the compounds according to this invention; concentration-effect curves, single compound vs. combination. The procedure:
In order to assess favorable compound combinations in vitro which might be used for therapeutic applications, a modified Alamar Blue cell viability assay (described in O'Brien et al. Eur J Biochem 267, 5421-5426, 2000) is applied. For that purpose, anti-proliferative/cytotoxic effects of the compounds described herein in combination with other pharmacologically active compounds are assayed on NCl-H460 non-small cell lung cancer cells. The respective compounds are dissolved as 20 mM solutions in dimethylsulfoxide (DMSO) and subsequenty diluted in semi-logarithmic steps. […] To determine the viability of the cells, 20 μl of an Alamar Blue solution (Biosource) are added and the fluorescence is measured at an extinction of 544 nm and an emission of 590 nm. For the calculation of cell viability the fluorescence emission value from untreated cells is set to 100% viability and the emission values of treated cells are set in relation to the values of untreated cells. Viabilities are expressed as % values. […]
Synergistic or antagonistic effects of compound combinations can be determined from the concentration-effect curves by comparison of curve shapes and IC50 values for single compound treatment vs. the compound combination.

Turning to `CCC(=O)c1c(-c2cc(C)c(O)c(C)c2)c(C)n2c1-c1cc(OC)c(OC)cc1CC2` [Example 1, 1-[2-(4-Hydroxy-3,5-dimethyl-phenyl)-8,9-dimethoxy-3-methyl-5,6-dihydro-pyrrolo[2,1-a]isoquinolin-1-yl]-propan-1-one], in series [1], the IC50 is 158 to 1580 nM.
For `CCC(=O)c1c(-c2ccc(OC)c(OC)c2F)c(C)n2c1-c1cc(OC)c(OC)cc1CC2` [Example 2, 1-[2-(2-Fluoro-3,4-dimethoxy-phenyl)-8,9-dimethoxy-3-methyl-5,6-dihydro-pyrrolo[2,1-a]isoquinolin-1-yl]-propan-1-one], the melting point – broadly, the temperature, or range, at which the solid turns liquid – is 129 to 132 °C.
Molecule `CCC(=O)c1c(-c2csc3ccccc23)c(C)n2c1-c1cc(OC)c(OC)cc1CC2` [Example 3, 1-(2-Benzo[b]thiophen-3-yl-8,9-dimethoxy-3-methyl-5,6-dihydro-pyrrolo[2,1-a]isoquinolin-1-yl)-propan-1-one] returned a melting point of 181 to 183 °C. Moreover, the IC50 in series [1] was 158 to 1580 nM.
As to `CCC(=O)c1c(-c2c[nH]c3ccccc23)c(C)n2c1-c1cc(OC)c(OC)cc1CC2` [Example 4, 1-[2-(1H-Indol-3-yl)-8,9-dimethoxy-3-methyl-5,6-dihydro-pyrrolo[2,1-a]isoquinolin-1-yl]-propan-1-one], the melting point lay in the range of 238 to 240 °C. In addition, in series [1], the IC50 is 158 to 1580 nM.
The molecule `CCC(=O)c1c(-c2ccc(-c3ccccc3)cc2)c(C)n2c1-c1cc(OC)c(OC)cc1CC2` [Example 5, 1-(2-Biphenyl-4-yl-8,9-dimethoxy-3-methyl-5,6-dihydro-pyrrolo[2,1-a]isoquinolin-1-yl)-propan-1-one] registered a melting point of 209 to 211 °C. Moreover, in series [1], the IC50 is 158 to 1580 nM.
On to `COc1cc2c(cc1OC)-c1c(C(=O)C3CC3)c(-c3cc(C)c(O)c(C)c3)c(C)n1CC2` [Example 6, 1-Cyclopropyl-1-[2-(4-hydroxy-3,5-dimethyl-phenyl)-8,9-dimethoxy-3-methyl-5,6-dihydro-pyrrolo[2,1-a]isoquinolin-1-yl]-methanone], for which, in series [1], the IC50 is 158 to 1580 nM.
Regarding `Nc1ncnc2c1nc(Sc1ccc(Cl)cc1)n2[C@@H]1O[C@@H]2COP(O)(=S)O[C@H]2[C@H]1O` (stereo partly shown) [RP-8-CPT-cAMPs], the “synergistic effects with the compounds according to this invention” value in series [2] is recorded as “highly synergistic”.
